In experiment [1] the target is T1, Recombinant human M3 receptor (Homo sapiens, UniProt P20309).
T1 construct: expressed in transfected cells; host or cells: CHO-K1 cells (membranes)
Nature of the experiment: biochemical. The class given is binding.

The subject of experiment [2] is Isolated Guinea Pig Trachea. Nature of the experiment: Potency in isolated guinea pig trachea, inhibition of EFS-stimulated contraction. As to conditions: Cavia porcellus, electrical field stimulation. The procedure:
Experiments were carried out at 37° C. in modified Krebs-Henseleit solution, (114 mM NaCl, 15 mM NaHCO3, 1 mM MgSO4, 1.3 mM CaCl2, 4.7 mM KCl, 11.5 mM glucose and 1.2 mM KH2PO4, pH 7.4) gassed with 95% O2/5% CO2. Indomethacin was added to a final concentration of 3 μM
Tracheae were removed from adult male Dunkin Hartley Guinea pigs and dissected free of adherent tissue before being cut open longitudinally in a line opposite the muscle. Individual strips of 2-3 cartilage rings in width were cut and suspended using cotton thread in 10 mL water-jacketed organ baths and attached to a force transducer ensuring that the tissue is located between two platinum electrodes. Responses were recorded via a MP100W/Acknowledge data acquisition system connected to a PC. Tissues were equilibrated for one hour under a resting tone of 1 g and were then subjected to electrical field stimulation at a frequency of 80 Hz with a pulse width of 0.1 ms, a unipolar pulse, triggered every 2 minutes. A “voltage-response” curve was generated for each tissue and a submaximal voltage then applied to every piece of tissue according to its own response to voltage. Tissues were washed with Krebs solution and allowed to stabilize under stimulation prior to addition of test compound. Concentration response curves were obtained by a cumulative addition of test compound in half-log increments. Once the response to each addition had reached a plateau the next addition was made. Percentage inhibition of EFS-stimulated contraction is calculated for each concentration of each compound added and dose response curves constructed using Graphpad Prism software and the IC50 calculated for each compound.

Experiment [3] addresses T2, human muscarinic receptors (M3) (Homo sapiens, UniProt P20309).
T2 construct: purchased
The experiment is described as follows: Muscarinic receptor radioligand binding assay, [3H]-NMS, filter plate format. Here is the method:
Radioligand binding studies utilising [^3H]-N-methyl scopolamine ([^3H]-NMS) and commercially available cell membranes expressing the human muscarinic receptors (M2 and M3) were used to assess the affinity of muscarinic antagonists for M2 and M3 receptors. Membranes in TRIS buffer were incubated in 96-well plates with [^3H]-NMS and M3 antagonist at various concentrations for 3 hours. Membranes and bound radioligand were then harvested by filtration and allowed to dry overnight. Scintillation fluid was then added and the bound radioligand counted using a Canberra Packard Topcount scintillation counter

Setting [4] is: M3, SPA format assay, read-out: Ki in the SPA format assay.
The mark [5] stands for this setting: SPA format, read-out: M3 Ki (SPA format).
The mark [6] stands for this setting: filter plate format, read-out: M3 Ki (Filter plate format).

Molecules are shown by their SMILES. Structures can show the parent of a compound that is named as a salt. Where two headings read alike, the source gives them in different places.

T1 sequence (P20309 whole entry): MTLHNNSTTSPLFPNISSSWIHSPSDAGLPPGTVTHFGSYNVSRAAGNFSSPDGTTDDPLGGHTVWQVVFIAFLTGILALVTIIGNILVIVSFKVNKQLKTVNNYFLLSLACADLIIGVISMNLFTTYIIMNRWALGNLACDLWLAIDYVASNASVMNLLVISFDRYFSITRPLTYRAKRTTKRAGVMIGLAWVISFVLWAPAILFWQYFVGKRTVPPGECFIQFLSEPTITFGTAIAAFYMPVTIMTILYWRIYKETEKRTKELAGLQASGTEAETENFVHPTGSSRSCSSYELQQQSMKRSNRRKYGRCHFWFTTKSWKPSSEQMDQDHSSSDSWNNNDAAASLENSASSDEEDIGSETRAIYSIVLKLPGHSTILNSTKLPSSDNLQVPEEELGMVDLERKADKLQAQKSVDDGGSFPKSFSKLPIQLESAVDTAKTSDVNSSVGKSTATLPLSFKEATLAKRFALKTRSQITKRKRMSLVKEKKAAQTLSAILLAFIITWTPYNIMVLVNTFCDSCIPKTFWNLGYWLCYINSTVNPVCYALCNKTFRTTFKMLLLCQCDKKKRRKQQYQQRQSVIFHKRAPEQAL
T2 sequence (P20309 whole entry): as above

Consider `O[C@](c1ccccc1)(c1ncc(C[N+]23CCC(CC2)[C@@H](OCc2ccccc2)C3)o1)C1CCCC1` [Example 42, (R)-3-benzyloxy-1-[2-((R)-cyclopentyl-hydroxy-phenyl-methyl)-oxazol-5-ylmethyl]-1-azonia-bicyclo[2.2.2]octane; formate], for which the Ki in experiment [1] (setting [4]) was 0.09 nM; in experiment [1] (setting [5]) it was less than 5 nM. Besides, the IC50 in experiment [2] was 0.7 nM.
On the same counts, the results for `OC(c1ccccc1)(c1ccccc1)c1noc(C[N+]23CCC(CC2)[C@@H](Oc2ccc(F)cc2)C3)n1` [Example 95, (R)-3-(4-Fluoro-phenoxy)-1-[3-(hydroxy-diphenyl-methyl)-[1,2,4]oxadiazol-5-ylmethyl]-1-azonia-bicyclo[2.2.2]octane; chloride] are 0.17 nM, less than 5 nM and 0.6 nM.
As to `O=C(O[C@@H]1C[N+]2(Cc3cnc([C@](O)(c4ccccc4)C4CCCCC4)o3)CCC1CC2)c1ccccc1` [Example 10, (S)-3-benzoyloxy-1-[2-((R)-cyclohexyl-hydroxy-phenyl-methyl)-oxazol-5-ylmethyl]-1-azonia-bicyclo[2.2.2]octane; formate], the inhibition constant (Ki) fell in the range of 5 to 20 nM in experiment [3] (M3 Ki (Filter plate format), filter plate format) and 5 to 20 nM in experiment [1] (M3 Ki (SPA format, SPA format)).
In the case of `OC(c1ccccc1)(c1ncc(C[N+]23CCC(CC2)C(Oc2ccccc2)C3)o1)C1CCCCC1` (single isomer, unassigned; enantiomer 1) [Example 3, 1-[2-[(RS)—(Cyclohexyl-hydroxy-phenyl-methyl)]-oxazol-5-ylmethyl]-3-phenoxy-1-azonia-bicyclo[2.2.2]octane bromide, enantiomer 1], the Ki in experiment [3] (setting [6]) was 5 to 20 nM.
With `OC(c1ccccc1)(c1cc(C[N+]23CCC(CC2)[C@@H](Sc2ccccc2)C3)on1)C1CCCCC1` (single isomer, unassigned) [Example 70, 1-[3-(Cyclohexyl-hydroxy-phenyl-methyl)-isoxazol-5-ylmethyl]-3-phenylsulfanyl-1-azonia-bicyclo[2.2.2]octane; chloride], the Ki in experiment [1] (setting [4]) is 0.65 nM; in experiment [1] (setting [5]), less than 5 nM. The same compound had an IC50 in experiment [2] of 2.8 nM.
Take `O[C@](c1ccccc1)(c1ncc(C[N+]23CCC(c4ccccc4)(CC2)CC3)o1)C1CCCCC1` [Example 11, 1-[2-((R)-cyclohexyl-hydroxy-phenyl-methyl)-oxazol-5-ylmethyl]-4-phenyl-1-azonia-bicyclo[2.2.2]octane; formate]: the Ki in experiment [3] (setting [6]) and in experiment [1] (setting [5]) was more than 20 nM throughout.
Turning to `O[C@](c1ccccc1)(c1ncc(C[N+]23CCC(CC2)[C@@H](COc2ccccc2)C3)o1)C1CCCCC1` [Example 25, (R)-1-[2-((R)—Cyclohexyl-hydroxy-phenyl-methyl)-oxazol-5-ylmethyl]-3-phenoxymethyl-1-azonia-bicyclo[2.2.2]octane; bromide], the figures for the Ki in experiment [1] (setting [4]) and in experiment [1] (setting [5]) were 0.13 nM and less than 5 nM, respectively. The compound also returned an IC50 in experiment [2] of 1.9 nM.
Regarding `OC(c1ccccc1)(c1ccccc1)c1ncc(C[N+]23CCC(CC2)C(Oc2ccccc2)C3)o1` (single isomer, unassigned; enantiomer 1) [Example 1, 1-[2-(Hydroxy-diphenyl-methyl)-oxazol-5-ylmethyl]-3-phenoxy-1-azoniabicyclo[2.2.2]octane bromide, enantiomer 1], the Ki in experiment [3] (setting [6]) and in experiment [1] (setting [5]) was more than 20 nM each time.
As for `OC(c1ccccc1)(c1ccccc1)c1ncc(C[N+]23CCC(CC2)C(Oc2ccccc2)C3)o1` (single isomer, unassigned; enantiomer 2) [Example 2, 1-[2-(Hydroxy-diphenyl-methyl)-oxazol-5-ylmethyl]-3-phenoxy-1-azoniabicyclo[2.2.2]octane bromide, enantiomer 2], the Ki in experiment [3] (M3, filter plate assay, read-out: Ki value in the filter plate assay) was 0.9 nM; in experiment [3] (setting [6]), less than 5 nM; in experiment [1] (setting [5]), less than 5 nM.

By Ki is commonly meant a measure of affinity in units of concentration, obtained from inhibition or displacement. For orientation: IC50 means the midpoint of a concentration-inhibition curve. Higher therefore signals a need for much substance.

Source of the values: patent US20100056565A1, “Heterocyclic Derivatives as M3 Muscarinic Receptors” (priority 2007, published 2010).
